In ChEMBL document CHEMBL4706669, “Majonoside-R2 extracted from Vietnamese ginseng protects H9C2 cells against hypoxia/reoxygenation injury via modulating mitochondrial function and biogenesis” (2021):
Activity calls are given as the source filed them. No cut-off for these calls is given here.

Experiments:
H9c2 [1] = assay: Protection against HR-induced mitochondrial dysfunction in rat H9c2 cells assessed as increase in cardiolipin content by fluorescence microplate reader; format: functional, cell-based
H9c2 [2] = assay: Cardioprotective activity against HR-induced injury in rat H9c2 cells assessed as increase in cell viability at 10 uM by CCK-8 assay relative to control; format: functional
H9c2 [3] = assay: Protection against HR-induced mitochondrial dysfunction in rat H9c2 cells assessed as mitochondrial membrane potential by measuring TMRE intensity by fluorescence microplate reader (reference value: 98.59 +/- 0.96 %); format: functional, cell-based; conditions: dose 9.0 µM
H9c2 [4] = assay: Protection against HR-induced mitochondrial dysfunction in rat H9c2 cells assessed as decrease in ROS production by fluorescence microplate reader; format: functional, cell-based
[5] = Induction of mitochondrial biogenesis in rat H9c2 cells with HR-induced injury assessed as upregulation of PPAR expression by immunoblotting (reference value: 0.065 +/- 0.019); format: functional
[6] = Induction of mitochondrial biogenesis in rat H9c2 cells with HR-induced injury assessed as upregulation of ATP5I expression (reference value: 0.998 +/- 0.001); format: functional
H9c2 [7] = assay: Increase in mitochondrial mass in rat H9c2 cells with HR-induced injury assessed as increase in NAO intensity by fluorescence microscopic analysis; format: functional, cell-based
H9c2 [8] = assay: Induction of mitochondrial biogenesis in rat H9c2 cells with HR-induced injury assessed as increase in NRF-1 mRNA expression; format: functional, cell-based
H9c2 [9] = assay: Cardioprotective activity against HR-induced injury in rat H9c2 cells assessed as increase in cell viability at 0.1 to 90 uM by CCK-8 assay; format: functional, cell-based; conditions: dose 0.1-90 µM
H9c2 [10] = assay: Induction of mitochondrial biogenesis in rat H9c2 cells with HR-induced injury assessed as upregulation of TFAM expression; format: functional, cell-based
[11] = Induction of mitochondrial biogenesis in rat H9c2 cells with HR-induced injury assessed as upregulation of PGC1beta mRNA expression relative to GADPH (reference value: 0.981 +/- 0.007); format: functional
H9c2 [12] = assay: Induction of mitochondrial biogenesis in rat H9c2 cells with HR-induced injury assessed as effect on PGC1alpha mRNA expression; format: functional, cell-based
H9c2 [13] = assay: Cardioprotective activity against HR-induced injury in rat H9c2 cells assessed as increase in cell viability at 9 uM by CCK-8 assay relative to control; format: functional
H9c2 [14] = assay: Induction of mitochondrial biogenesis in rat H9c2 cells with HR-induced injury assessed as increase in NAO intensity by fluorescence microscopic analysis; format: functional, cell-based
H9c2 [15] = assay: Induction of mitochondrial biogenesis in rat H9c2 cells with HR-induced injury assessed as […] in NRF-2 mRNA expression; format: functional, cell-based

Compound | Activity (H9c2 [1]) | Activity (H9c2 [2]) | Activity (H9c2 [3]) | Activity (H9c2 [4]) | fold change (FC) [5] | fold change (FC) [6] | Activity (H9c2 [7]) | Activity (H9c2 [8]) | Activity (H9c2 [9]) | Activity (H9c2 [10]) | fold change (FC) [11] | Activity (H9c2 [12]) | Activity (H9c2 [13]) | Activity (H9c2 [14]) | Activity (H9c2 [15])
CS(=O)(=O)O.CS(=O)(=O)O.O=S1(=O)CCN(Cc2cc(NCC3CCOCC3)c3[nH]c(-c4ccccc4)cc3c2)CC1 | Active | 84.37% | Active | Active |  |  |  |  |  |  |  |  |  |  | 
CC(C)(O)[C@@H]1CC[C@@](C)([C@H]2CC[C@]3(C)[C@@H]2[C@H](O)C[C@@H]2[C@@]4(C)CC[C@H](O)C(C)(C)[C@@H]4[C@@H](O[C@@H]4O[C@H](CO)[C@@H](O)[C@H](O)[C@H]4O[C@@H]4OC[C@@H](O)[C@H](O)[C@H]4O)C[C@]23C)O1 [MAJONOSIDE R2] | Active |  | Active | Active | 0.867 | 1.135 | Active | Active | Active | Active | 1.113 | inactive | 78.09% | Active | Active
